Laboratory results taken from patent US5750754A, “Heterocyclic compounds” (Zeneca Limited, priority 1993, dated 1998).
Counter-ions that a name gives are not always drawn. Like-named read-outs stand apart in the source and are kept apart here.

Columns and labels:
[1] = molecular target: T1, purified human platelet fibrinogen receptor (GPIIb/IIIa) (Homo sapiens, UniProt P05106+P08514); test: Test (b): GPIIb/IIIa ELISA, inhibition of biotinylated fibrinogen binding; conditions: purified human platelet GPIIb/IIIa, ELISA
T1 construct: is isolated from human platelet lysates; from tissue
T1 sequence (P08514 32-887 limits assumed): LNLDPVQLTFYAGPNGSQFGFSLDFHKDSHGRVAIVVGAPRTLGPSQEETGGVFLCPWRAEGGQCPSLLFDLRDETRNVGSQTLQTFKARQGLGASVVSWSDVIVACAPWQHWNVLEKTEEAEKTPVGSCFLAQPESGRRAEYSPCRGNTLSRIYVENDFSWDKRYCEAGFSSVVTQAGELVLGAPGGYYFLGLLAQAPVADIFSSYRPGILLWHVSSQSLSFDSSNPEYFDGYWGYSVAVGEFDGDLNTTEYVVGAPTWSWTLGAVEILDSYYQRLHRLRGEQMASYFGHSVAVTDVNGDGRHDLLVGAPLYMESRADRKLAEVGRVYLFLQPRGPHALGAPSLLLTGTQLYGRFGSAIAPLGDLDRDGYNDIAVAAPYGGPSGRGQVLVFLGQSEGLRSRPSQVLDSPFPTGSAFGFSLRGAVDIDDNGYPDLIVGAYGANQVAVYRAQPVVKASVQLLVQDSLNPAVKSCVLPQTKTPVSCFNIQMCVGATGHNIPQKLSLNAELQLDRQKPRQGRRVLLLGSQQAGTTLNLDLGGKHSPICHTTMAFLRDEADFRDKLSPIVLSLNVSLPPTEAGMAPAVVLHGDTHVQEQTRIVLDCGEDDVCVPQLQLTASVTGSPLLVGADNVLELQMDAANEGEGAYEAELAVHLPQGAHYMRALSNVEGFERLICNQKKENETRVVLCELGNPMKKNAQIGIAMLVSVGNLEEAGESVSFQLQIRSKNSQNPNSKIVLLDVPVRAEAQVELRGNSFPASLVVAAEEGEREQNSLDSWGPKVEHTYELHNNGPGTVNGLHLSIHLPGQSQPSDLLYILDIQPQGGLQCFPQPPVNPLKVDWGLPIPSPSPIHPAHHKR
T1 sequence (P08514 891-1039 limits assumed): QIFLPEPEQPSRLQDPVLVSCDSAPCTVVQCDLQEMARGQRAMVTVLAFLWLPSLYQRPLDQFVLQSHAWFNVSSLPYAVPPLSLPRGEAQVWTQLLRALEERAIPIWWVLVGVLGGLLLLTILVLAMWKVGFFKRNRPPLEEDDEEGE
T1 sequence (P05106 27-788): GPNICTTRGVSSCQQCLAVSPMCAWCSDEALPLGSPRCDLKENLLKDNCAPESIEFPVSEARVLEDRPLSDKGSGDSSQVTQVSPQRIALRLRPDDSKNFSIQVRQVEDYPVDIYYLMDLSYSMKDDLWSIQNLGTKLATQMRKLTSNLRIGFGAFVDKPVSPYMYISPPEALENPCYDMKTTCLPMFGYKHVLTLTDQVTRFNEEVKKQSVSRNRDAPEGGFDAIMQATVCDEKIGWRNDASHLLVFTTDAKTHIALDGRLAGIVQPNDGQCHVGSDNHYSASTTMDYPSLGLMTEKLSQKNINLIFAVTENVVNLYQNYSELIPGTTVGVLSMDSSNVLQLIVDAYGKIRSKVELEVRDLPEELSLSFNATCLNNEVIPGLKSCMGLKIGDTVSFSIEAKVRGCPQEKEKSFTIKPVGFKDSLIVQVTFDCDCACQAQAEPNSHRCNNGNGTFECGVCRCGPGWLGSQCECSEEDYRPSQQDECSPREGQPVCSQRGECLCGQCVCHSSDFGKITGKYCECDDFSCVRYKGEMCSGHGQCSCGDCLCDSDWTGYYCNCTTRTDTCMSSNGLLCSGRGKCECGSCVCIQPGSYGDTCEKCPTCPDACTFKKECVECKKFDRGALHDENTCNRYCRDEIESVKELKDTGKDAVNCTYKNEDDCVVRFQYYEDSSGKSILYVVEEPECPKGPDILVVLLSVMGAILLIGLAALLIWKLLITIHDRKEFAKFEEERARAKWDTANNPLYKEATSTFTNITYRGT
Experimental: (i) Preparation of human platelet lysates.
Platelet rich plasma (PRP) is harvested by centrifugation (1000 rpm, 15 mins) of whole blood anticoaoulated with acid citrate dextrose (trisodium citrate 85 mM, citric acid 70 mM, d-glucose 110 mM) 1 part to 6 parts blood. Prostacyclin (PGI2, 1 μM) is added to the PRP before centrifugation (2400 pm, 15 mins) and the resulting pellet is resuspended in modified Tyrodes' solution (NaCl 130 mM, KCl 26 mM, NaHCO3 12 mM, NaH2 PO4 0.5 mM, MgCl2 1 mM, CaCl2 20 mM, Glucose 12 mM, HEPES 5 mM) containing bovine serum albumin 3.5 g/L, PGI2 1 μM and hirudin 0.5 U/ml. The platelet suspension is centrifuged (2400 rpm, 15 mins) and the resultant pellet resuspended in 500 μl of lysis buffer (octyl glucoside 50 mM, HEPES 10 mM, NaCl 150 mM, CaCl2 1 mM, MgCl2 1 mM, PMSF 1 mM, NEM 10 mM, leupeptin 0.1 mM), agitated at 4° C. for 15 minutes then centrifuged at 24000 rpm, 15 mins. The supernatant is stored at 4° C. and the pellet re-suspended in 500 μl of lysis buffer. The centrifugation process is repeated a further 3 tlimes, the pooled supernatants being stored at -70° C.
(ii) Receptor purification.
GP Ilb/Ila is isolated from human platelet lysates using a 2 ml peptide (KYGRGDS) coupled CNBr activated Sepharose affinity column. A 1.5 ml volume of platelet lysate is placed on the column and allowed to stand overnight at 4° C. Buffer (30 mls, octyl gluicoside 25 mM, HEPES 10 mM, NaCl 150 mM, CaCl2 1 mM, MgCl2 1 mM, PMSF 1 mM, NEM 10 mM, leupeptin 0.1 mM) is passed through the column and 2 ml fractions are collected throughout. GPIIb/IIIa is eluted with 12 mls of buffer containing HHLGGAKQAGDV (2 mg/ml, pH 7.5), the column is washed using 4 mls buffer and the remaining GPIIb/IIIa eluted using 12 mls buffer containing GRGDSPG (1 mg/ml pH 7.5). The column is finally washed using 20 mls of buffer and can be used for up to three such preparations. Fractions containing FGPIIb/IIIa are identified using gel electrophoresis and immunoblotting, pooled and stored at -70° C.
96 well microtitre plates are coated with 100 μl purified human platelet fibrinogen receptor (GPIIb/IIIa) diluted in coating buffer (Tris-HCl 20 mM, NaCl 150 mM, CaCl2 1 mM, pH 7.4) and left overnight at 4° C. The plates are washed using washing buffer (Tris-HCl 50 mM, NaCl 100 mM, CaCl2 2 mM, pH 7.4) and non-specific binding, blocked by the addition of 200 μl 2% BSA (2 hours, 30° C.). The plates are washed prior to incubation (2 hours, 30° C.) with 100 μl biotinylated fibrinogen ([…]) containing either vehicle or test compound. The plates are washed, incubated with streptavidin (5 μg/ml, 1 hour, ambient temperature), then washed again before the addition of 100 μl biotinylated horse radish peroxidase (0.1 μg/ml, 1 hour, ambient temperature). The plates are then washed and equal volumes of peroxidase substrate (3, 5, tetramethyl benzidine 0.4 g/l) and H2 O2 (0.02%) are mixed together immediately before addition of 150 μl to each well. Colour is allowed to develop for 10-15 mins before optical densities are read at 650 nm.
The concentration of compound required to cause 50% inhibition of biotinylated fibrinogen binding, is calculated and expressed as a pIC50 (-log(IC50)).

[2] = molecular target: T2, human, citrated, platelet-rich plasma (Homo sapiens, UniProt P05106+P08514); test: Test (a): inhibition of ADP stimulated platelet aggregation (Born); assay type: cell-based; conditions: ADP induced aggregation of human platelet-rich plasma
T2 construct: aggregating human, citrated, platelet-rich plasma; endogenous in cells; host or cells: human platelets in citrated platelet-rich plasma
T2 sequence (P08514 32-887 limits assumed): as the sequence (P08514 32-887 limits assumed) above
T2 sequence (P08514 891-1039 limits assumed): as the sequence (P08514 891-1039 limits assumed) above
T2 sequence (P05106 27-788): as the sequence (P05106 27-788) above
Source text: (i) aggregating human, citrated, platelet-rich plasma by addition of adenosine diphosphate so as to generate a dose-response curve;
(ii) generating a dose-response curve for ADP stimulated platelet aggregation in the presence of increasing amounts of a test compound (generally in the range 10-^5 M to 10-^10 M); and
(iii) calculating a pA2 value indicating potency of platelet aggregation inhibition for the test compound, averaged over several concentrations, from the calculated 50% response value for ADP aggregation in the presence and absence of the test compound.

[3] = Test (b): pIC50 (-log(IC50)), 50% inhibition of biotinylated fibrinogen binding to GPIIb/IIIa
[4] = Test (a): pA2 value indicating potency of platelet aggregation inhibition
[5] = read-out: Test (b): pIC50 (-log(IC50)), 50% inhibition of biotinylated fibrinogen binding to GPIIb/IIIa (converted)
[6] = read-out: Test (a): pA2 value indicating potency of platelet aggregation inhibition (converted)

| Compound | Kb [2, 6] | further results |
| --- | --- | --- |
| COC(=O)COc1ccc(C(=O)C(C)N2CCN(c3ccncc3)CC2)cc1 (racemic) [Example 16, (RS) Methyl 4-[2-[4-(4-pyridyl)piperazin-1-yl]-2-methylacetyl]phenoxyacetate] | – | IC50 [1, 3]: 200 nM; Kb [2, 4]: 158 nM |
| CC(C(=O)c1ccc(OCC(=O)O)cc1)N1CCN(c2ccncc2)CC1 (racemic) [Example 17, RS 4-[2-[4-(4-Pyridyl)piperazin-1-yl]2-methylacetyl]phenoxyacetic acid sodium chloride adduct dihydrate] | – | IC50 [1, 3]: 20 nM; Kb [2, 4]: 39.8 nM |
| CCCCS(=O)(=O)NC(Cc1ccc(C(=O)CN2CCN(c3ccncc3)CC2)cc1)C(=O)OC (racemic) [Example 66, Methyl 2-RS-(n-butylsulphonylamino)-3-[4-[2-[4-(4-pyridyl)piperazin-1-yl]acetyl]phenyl]propionate] | 2000 nM | IC50 [1, 5]: 251 nM |
| CCCCS(=O)(=O)NC(Cc1ccc(C(=O)CN2CCN(c3ccncc3)CC2)cc1)C(=O)O (racemic) [Example 67, 2-RS-(n-Butylsulphonylamino)-3-[4-[2-[4-(4-pyridyl)piperazine-1-yl]acetyl]phenyl]propionic acid] | 2.51 nM | IC50 [1, 5]: 3.16 nM |
| CC(C)(C)OC(=O)NC(CCOc1ccc(N2CCN(c3ccncc3)CC2)cc1)C(=O)O (racemic) [Example 212, RS 2-t-Butoxycarbonylamino-4-[4-[4-(4-pyridyl)piperazin-1-yl]phenoxy]butyric acid] | 79.4 nM | – |
| CCCCS(=O)(=O)NC(CCOc1ccc(N2CCN(c3ccncc3)CC2)cc1)C(=O)OC (racemic) [Example 218, RS Methyl 2-n-butanesulphonylamino-4-[4-[4-(4-pyridyl)piperazin-1-yl]phenoxy]butyrate] | 1000 nM | – |
| CCCCS(=O)(=O)NC(CCOc1ccc(N2CCN(c3ccncc3)CC2)cc1)C(=O)O (racemic) [Example 219, RS 2-n-Butanesulphonylamino-4-[4-[4-(4-pyridyl)piperazin-1-yl]phenoxy]butyricacid] | 31.6 nM | – |
| O=C(O)CC(COc1ccc(N2CCN(c3ccncc3)CC2)cc1)Cc1ccccc1 (racemic) [Example 220, RS 3-Benzyl-4-[4-[4-(4-pyridyl)piperazin-1-yl]phenoxy]-butyric acid] | 3160 nM | – |
| O=C(O)CC(COc1ccc(N2CCN(c3ccncc3)CC2)cc1)c1ccccc1 (racemic) [Example 221, RS 3-Phenyl-4-[4-[4-(4-pyridyl)piperazin-1-yl]phenoxy]-butyric acid] | 158 nM | – |
| O=C(O)CCCc1ccc(CN2CCN(c3ccncc3)CC2)cc1 [Example 180, 4-[4-[4-(4-Pyridyl)piperazin-1yl]methylphenyl]butyric acid, dihydrochloride] | 3160 nM | – |
| CCOC(=O)CCCCCOc1ccc(Nc2ccncc2)cc1 [Example 187, Ethyl 6-[4-(4-pyridylamino)phenoxy]hexanoate] | 15800 nM | – |
| O=C(O)CCCCCOc1ccc(Nc2ccncc2)cc1 [Example 188, 6-[4-(4-Pridylamino)phenoxy]hexanoic acid hydrochloride] | – | Test (a): pA2 value indicating potency of platelet aggregation inhibition [2]: 6.0 |
| O=C(O)CCC(=O)Nc1ccc(N2CCN(c3ccncc3)CC2)cc1 [Example 199, 4-Oxo-4-[4-[4-(4-pyridyl)piperazine-1-yl]phenyl]aminobutyric acid] | 501 nM | – |
| C=CCc1cc(N2CCN(c3ccncc3)CC2)ccc1OCCCC(=O)OCC [Example 205, Ethyl 4-[2-allyl-4-[4-(4-pyridyl)piperazin-1-yl]phenoxy]butyrate] | 251 nM | – |
| CCCc1cc(N2CCN(c3ccncc3)CC2)ccc1OCCCC(=O)O [Example 208, 4-[2-n-Propyl4-[4-(4-pyridyl)piperazin-1-yl]phenoxy]butyric acid] | 316 nM | – |
| CCOC(=O)CCCOc1ccc(N2CCN(c3ccncc3)CC2)cc1C [Example 209, Ethyl 4-[2-methyl-4-[4-(4-pyridyl)piperazin-1-yl]phenoxy]butyrate] | 200 nM | – |
| Cc1cc(N2CCN(c3ccncc3)CC2)ccc1OCCCC(=O)O [Example 210, 4-[2-Methyl-4-[4-(4-pyridyl)piperazin-1-yl]phenoxy]-butyric acid] | 316 nM | – |
| CCOC(=O)COc1ccc(C(=O)CN2CCN(c3ccncc3)CC2=O)cc1 [Example 215, Ethyl 4-[2-[4-(4-pyridyl)piperazin-2-one-1-yl]acetyl]phenoxyacetate] | 126 nM | – |
| CCOC(=O)CNC(=O)COc1ccc(C(=O)CN2CCN(c3ccncc3)CC2=O)cc1 [Example 216, Ethyl N 4-[2-(4-(4-pyridyl)piperazin-2-one-1-yl)acetyl]phenoxyacetylglycinate] | 2000 nM | – |
| CCOC(=O)CCCOc1ccc(N2CCN(c3ccncc3)CC2)cc1[N+](=O)[O-] [Example 217, Ethyl 4-[2-nitro-4-[4-(4-pyridyl)piperazin-1-yl]phenoxy]butyrate] | 316 nM | – |
| CN(C)c1ccncc1CCCOc1ccc(C[C@H](NC(=O)OCc2ccccc2)C(=O)O)cc1 [Example 225] | 158 nM | – |
| COC(=O)c1ccc(Oc2ccc(N3CCN(c4ccncc4)CC3)cc2)nc1 [Example 232, Methyl 6-[4-[4-(4-pyridyl)piperazin-1-yl]phenoxy]pyridine-3-carbxylate] | 31600 nM | – |
| O=C(O)CCN(Cc1ccccc1)C(=O)c1ccc(N2CCN(c3ccncc3)CC2)cc1 [Example 236, 3-[4-[4-(4-Pyridyl)piperazin-1-yl]]-N-benzylbenzamidopropionic acid] | 794 nM | – |
| O=C(O)CN1CCC(Oc2ccc(N3CCN(c4ccncc4)CC3)cc2)CC1 [Example 238, 4-[4-[4-(Pyridyl)piperazin-1-yl]phenoxy]piperidineacetic acid] | 1260 nM | – |
| O=C(O)CN1CCCC(Oc2ccc(N3CCN(c4ccncc4)CC3)cc2)C1 (stereo not drawn) [Example 239] | 2510 nM | – |
| CCCc1cc(C(=O)CN2CCN(c3ccncc3)CC2=O)ccc1OCC(=O)O [Example 240, [2-Propyl-4-[2-[4-(4-pyridyl)piperazin-2-one-1-yl]acetyl]]phenoxyacetic acid] | 25.1 nM | – |
| Cc1cc(C(=O)CN2CCN(c3ccncc3)CC2=O)ccc1OCC(=O)O [Example 241, [2-Methyl-4-[2-[4-(4-pyridyl)piperazin-2-one-1-yl]acetyl]]phenoxyacetic acid] | 6.31 nM | – |
| CCOC(=O)CCCOc1ccc(N2CCN(c3ccncc3)CC2=O)cc1 [Example 242, Ethyl 4-[4-[4-(4-pyridyl)piperazin-2-one-1yl]phenoxy]butyrate] | 316 nM | – |
| O=C(O)CCCOc1ccc(N2CCN(c3ccncc3)CC2=O)cc1 [Example 243, 4-[4-[4-(4-Pyridyl)piperazin-2-one-1-yl]phenoxy]butyric acid] | 10 nM | – |
